Here are results for four compounds from US20240351965A1, “Synthesis and Evaluation of Novel (4-Hydroxyphenyl) Substituted Carbocycles as Potent and Selective Estrogen Receptor Beta Agonists” (Marquette University, priority 2021, published 2024).

In one data set the target is T1, CYP2C9 (Homo sapiens, UniProt P11712).
T1 construct: purchased Promega (P450-Glo Screening Systems)
The data set is described as follows: Cytochrome P450 inhibition (P450-Glo), CYP2C9. The format is in vitro ADME. Conditions: for IC50: tested up to 62.5 μM. Here is the method:
(§1) A screen of Cytochrome p450 inhibition was performed using the Promega P450-Glo™ Screening Systems. The Screening Systems' manual instructions were followed for CYP2C9, CYP2D6, or CYP3A4 enzymes with Luciferin-H, Luciferin-ME EGE or Luciferin-PPXE as substrates, respectively. The components of the kits, i.e., membrane enzymes, control enzymes, substrates and potassium phosphate buffer and or TRIS buffer were combined according to the System-manual's recommended final concentrations. Reactions were pre-incubated in white 96-well flat-bottom plates at 37° C. for 10 min before starting reactions with 2×NADPH regeneration buffer. The 96-well plates were incubated according to the recommended times in the linear range for each enzyme/substrate reaction. The reactions were stopped using 2× Luciferin Detection Reagent. After 20 minutes, the luciferase product was detected using a SpectraMax M5 Molecular Devices plate reader on the end-point luminescence setting. Positive control inhibitors for CYP2C9, CYP2D6, and CYP3A4 enzymes were assayed at a final concentration of 10 μM sulfaphenazole, 1 μM quinidine and 5 μM ketoconazole, respectively. Serial dilutions of 5a/b and (±)-11 were assayed at final concentrations of […], 7.812, 3.906, 1.953, 0.977, 0.488 μM. Inhibition data were analyzed using GraphPad Prism® 6 for Windows, ver. 6.07 (Jun. 12, 2015) software. Raw data were normalized against the control enzyme and untreated CYP enzyme means and then analyzed through non-linear regression using log (inhibitor) vs normalized dose-response curves to assess IC50s. Standard deviations were calculated from Best-fit values. Data were normalized to vehicle and positive controls (sulfaphenazole for CYP2C9, quinidine for CYP2D6, and ketoconazole for CYP3A4) and nonlinear square fits of the data were conducted using Prism 6 (GraphPad).

Another data set concerns the target T2, CYP2D6 (Homo sapiens, UniProt P10635).
T2 construct: purchased Promega (P450-Glo Screening Systems)
The experiment in a line: Cytochrome P450 inhibition (P450-Glo), CYP2D6. The format is in vitro ADME. Here is the method: as §1

A further data set has as its target T3, CYP3A4 (Homo sapiens, UniProt P08684).
T3 construct: purchased Promega (P450-Glo Screening Systems)
The data set is described as follows: Cytochrome P450 inhibition (P450-Glo), CYP3A4. The format is in vitro ADME. Here is the method: as §1

For data set [1], the target named is T4, ERβ (Homo sapiens, UniProt Q92731). The settings on record: cited from earlier work.
Target sequence in this assay (Q92731 whole entry): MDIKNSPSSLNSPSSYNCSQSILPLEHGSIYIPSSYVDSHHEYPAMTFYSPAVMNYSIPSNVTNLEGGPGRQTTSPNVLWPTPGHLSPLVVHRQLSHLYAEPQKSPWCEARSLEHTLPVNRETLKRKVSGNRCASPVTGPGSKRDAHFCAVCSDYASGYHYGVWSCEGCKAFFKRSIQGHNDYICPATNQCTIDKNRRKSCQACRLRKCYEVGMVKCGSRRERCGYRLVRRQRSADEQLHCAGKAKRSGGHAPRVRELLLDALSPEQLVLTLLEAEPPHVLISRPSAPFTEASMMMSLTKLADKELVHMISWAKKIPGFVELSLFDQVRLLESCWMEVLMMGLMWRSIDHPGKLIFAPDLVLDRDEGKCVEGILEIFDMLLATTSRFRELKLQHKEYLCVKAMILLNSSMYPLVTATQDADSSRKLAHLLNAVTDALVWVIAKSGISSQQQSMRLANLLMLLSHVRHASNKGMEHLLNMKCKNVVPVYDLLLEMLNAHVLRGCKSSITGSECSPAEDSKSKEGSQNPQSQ
In data set [2] the target is T4, ERβ. The data set is described as follows: TR-FRET ligand binding displacement assay (LanthaScreen). On the technique in general: In TR-FRET formats the signal depends on donor and acceptor labels being close together.
Target sequence in this assay (Q92731 264-498 limits assumed): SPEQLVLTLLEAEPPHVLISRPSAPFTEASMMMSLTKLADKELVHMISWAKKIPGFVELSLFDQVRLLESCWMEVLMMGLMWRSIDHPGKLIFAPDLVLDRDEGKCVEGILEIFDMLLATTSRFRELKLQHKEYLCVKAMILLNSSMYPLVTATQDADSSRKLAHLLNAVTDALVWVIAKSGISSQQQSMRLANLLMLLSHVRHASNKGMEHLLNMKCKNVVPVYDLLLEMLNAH
The target in data set [3] is T4, ERβ. The experiment in a line: TR-FRET coactivator binding (recruitment) assay. The format is biochemical.
Target sequence in this assay (Q92731 264-498 limits assumed): as above
Setting [4] is: human, probe Luciferin-ME EGE, read-out: CYP2D6 inhibition: not inhibited at concentrations up to (abstract).
The mark [5] stands for this setting: read-out: CYP2D6 inhibition: no inhibition up to.
Setting [6] is: human, probe Luciferin-PPXE, read-out: CYP3A4 inhibition: not inhibited at concentrations up to (abstract).
Where [7] appears, read: read-out: CYP3A4 inhibition: no inhibition up to.

Like-named read-outs stand apart in the source and are kept apart here.

T2 sequence (P10635 whole entry): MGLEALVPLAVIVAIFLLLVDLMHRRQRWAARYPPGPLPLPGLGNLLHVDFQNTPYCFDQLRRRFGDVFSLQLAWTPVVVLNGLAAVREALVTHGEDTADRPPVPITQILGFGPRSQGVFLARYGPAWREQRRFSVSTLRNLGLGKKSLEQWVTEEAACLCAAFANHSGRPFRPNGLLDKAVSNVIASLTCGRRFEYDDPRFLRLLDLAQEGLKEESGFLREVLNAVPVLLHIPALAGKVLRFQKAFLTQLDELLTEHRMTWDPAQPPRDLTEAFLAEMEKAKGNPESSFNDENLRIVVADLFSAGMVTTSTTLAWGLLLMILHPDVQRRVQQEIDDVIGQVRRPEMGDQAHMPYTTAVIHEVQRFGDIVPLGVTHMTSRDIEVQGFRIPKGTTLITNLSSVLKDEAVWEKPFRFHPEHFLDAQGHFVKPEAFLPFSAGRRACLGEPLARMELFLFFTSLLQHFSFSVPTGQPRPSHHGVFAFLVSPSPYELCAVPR
T3 sequence (P08684 whole entry): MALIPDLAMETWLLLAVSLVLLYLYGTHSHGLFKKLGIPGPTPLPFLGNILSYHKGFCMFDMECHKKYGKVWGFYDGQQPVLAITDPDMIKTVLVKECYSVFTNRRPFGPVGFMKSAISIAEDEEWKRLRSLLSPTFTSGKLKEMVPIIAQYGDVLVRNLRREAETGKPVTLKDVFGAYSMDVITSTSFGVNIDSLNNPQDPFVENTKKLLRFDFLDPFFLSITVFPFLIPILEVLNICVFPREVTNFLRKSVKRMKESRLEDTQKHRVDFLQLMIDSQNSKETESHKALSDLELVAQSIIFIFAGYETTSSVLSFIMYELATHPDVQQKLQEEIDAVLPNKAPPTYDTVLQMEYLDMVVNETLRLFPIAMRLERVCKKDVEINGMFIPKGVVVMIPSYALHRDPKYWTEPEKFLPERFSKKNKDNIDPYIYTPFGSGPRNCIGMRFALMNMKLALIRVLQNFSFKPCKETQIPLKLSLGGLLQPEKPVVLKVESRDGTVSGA
T1 sequence (P11712 whole entry): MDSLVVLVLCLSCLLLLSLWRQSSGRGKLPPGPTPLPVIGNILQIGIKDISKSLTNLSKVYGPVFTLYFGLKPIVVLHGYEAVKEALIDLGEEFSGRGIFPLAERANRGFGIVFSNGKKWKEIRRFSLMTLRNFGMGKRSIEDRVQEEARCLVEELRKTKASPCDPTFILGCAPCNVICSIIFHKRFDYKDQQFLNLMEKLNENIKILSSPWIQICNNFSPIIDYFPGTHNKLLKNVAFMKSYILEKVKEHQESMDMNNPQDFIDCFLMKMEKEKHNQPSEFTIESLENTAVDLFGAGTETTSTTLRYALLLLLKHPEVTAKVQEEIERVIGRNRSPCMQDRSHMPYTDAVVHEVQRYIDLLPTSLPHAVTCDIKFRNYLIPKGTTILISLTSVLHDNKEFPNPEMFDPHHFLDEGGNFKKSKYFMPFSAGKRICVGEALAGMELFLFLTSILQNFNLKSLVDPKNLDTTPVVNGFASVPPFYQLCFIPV

Consider `Oc1ccc(C2CCC3(CC2)CC(O)C3)cc1` (racemic) [(±)-11, 7-(4-hydroxyphenyl)spiro[3.5]nonan-2-ol], for which the “CYP2C9 binding in enzyme kinetic inhibition assay” value on CYP2C9 is recorded as “does not bind to any of these CYP450 enzymes with significant activity”. Moreover, the IC50 at CYP2C9, on CYP2D6 (setting [4]), on CYP2D6 (setting [5]), at CYP3A4 (setting [6]) and at CYP3A4 (setting [7]) was > 62.5 µM each time. At CYP2D6, the “CYP2D6 binding in enzyme kinetic inhibition assay” value is given as “does not bind to any of these CYP450 enzymes with significant activity”. For the same compound, the “CYP3A4 binding in enzyme kinetic inhibition assay” value at CYP3A4 is listed as “does not bind to any of these CYP450 enzymes with significant activity”.

Take `OCC12CC3CC(C1)C(c1ccc(O)cc1)C(C3)C2` (stereo not shown) [5a/b, 4-(4-Hydroxyphenyl)tricyclo[3.3.1.1^3,7]decane-1-methanol]: the IC50 at CYP2C9 was 10 ± 0.5 µM; at CYP2D6 (setting [4]), > 62.5 µM; on CYP2D6 (setting [5]), > 62.5 µM; at CYP3A4 (setting [6]), > 62.5 µM; on CYP3A4 (setting [7]), > 62.5 µM. Also, at CYP2D6, the “CYP2D6 binding in enzyme kinetic inhibition assay” value was “weak binding only to CYP2C9”. The “CYP3A4 binding in enzyme kinetic inhibition assay” value on CYP3A4 is listed as “weak binding only to CYP2C9”.

Consider `OCC1CCCC(c2ccc(O)cc2)CC1` (stereo not shown) [ISP163], for which the “ERβ selectivity (literature)” value at ERβ [1] is on record as 318 fold. At ERβ [1] (read-out: EC50 (literature, ERβ agonist)), the EC50 (usually the concentration that produces a half-maximal response) is 0.033 ± 0.005 µM.

Turning to `O=C1CC2(CCC(c3ccc(O)cc3)CC2)C1` [compound 10, 7-(4-Hydroxyphenyl)spiro[3.5]nonan-2-one], the results for the IC50 at ERβ [2] and at ERβ [3] were 2.22 ± 2.66 µM and 1.64 ± 0.301 µM, respectively.
